Data published in paper PMC6698794, “Catalytic Knockdown of miR-21 by Artificial Ribonuclease: Biological Performance in Tumor Model” (Frontiers in Pharmacology, 2019).

Assays:
PTEN = PTEN protein level in transfected RLS40 cells by Western blot; type: cell-based, mouse; settings: 1 µM, 72 h after transfection, GAPDH internal control
Protocol: (§1) RLS40 ascites were taken from CBA mice intraperitoneally injected with tumor cells (2 × 10^6 in 0.2 ml buffered saline) into their abdominal cavities. RLS40 cells, isolated from ascites fluid by filtration through LSM were divided into seven portions: 1) untreated cells; 2) the cells incubated with Lipofectamine; the cells transfected with 1 µM of 3) h-ODN, 4) 2′-OMe, 5) Inh, 6) miR-21-miRNase, or 7) luc-POC each. After 4 h of transfection, cell suspensions (0.1 ml, 2 × 10^6 cells) were intramuscularly inoculated into the right lower limb of CBA mice for solid tumor development. As soon as tumors began to be palpable, the tumor volumes were measured every 2–3 days using calipers. Tumor volumes were calculated as V = (π/6 × length × width × height). Hepatic index was estimated as (liver weight/mouse weight) × 100% and as 5.0% for healthy CBA mice. Tumor doubling time (DT) was estimated as DT = (t − t0) × ln 2/(ln V − ln V0), where (t − t0) indicates the length of time between two measurements of tumor size and V0 and V denote the tumor volume at two points of the measurement ([Ozono et al., 2004]).
(§2) Supplementary Figure 3. Expression level of miR-21 and PTEN and PDCD4 protein level in RLS40 cells after transfection with 1 µM of luc-POC or miR-21-miRNase using LipofectamineTM 2000. (A) Expression level of miR-21 24 h after transfection. The expression of miRNAs was normalized to U6. […]

lymphosarcoma cells = settings: ref Patutina et al., 2017a; cited from earlier work
Description: Short functional non-coding microRNAs are implicated in many types of cancer ([Frixa et al., 2015]; [O’Bryan et al., 2017]; [Zhou et al., 2017]). Amongst many miRNAs identified as important inducers of oncogenesis, miR-21 represents an extreme oncomiR, which is strongly involved in tumor onset and progression for many types of malignancies ([Huang et al., 2013]; [Lianidou et al., 2016]; [Yu et al., 2018]). Since miR-21 is abnormally overexpressed in major types of tumors, this oncomiR is the most considered target for anti-miRNA inhibitory studies. However, depending on the origin of tissue an ...

PDCD4 = PDCD4 protein level in transfected RLS40 cells by Western blot; type: cell-based, mouse; settings: 1 µM, 72 h after transfection, GAPDH internal control
Protocol: as §1, §2

B16 cells = assay: In vitro invasiveness assay (xCELLigence, Matrigel-coated CIM-Plates); type: cell-based, mouse; settings: 1 µM with Lipofectamine
Protocol: (§3) B16 cells were pre-seeded (2 × 10^5 per well of 24-well plates) in DMEM/10% FBS a day before transfection. Medium was replaced with serum-free DMEM, prior to incubation for 4 h with h-ODN, 2′-OMe, Inh (hsa-miR-21 5 p inhibitor, Ambion, USA), miR-21-miRNase, or luc-POC, each (0.1 or 1 µM) pre-complexed with Lipofectamine (Thermo Fisher Scientific, USA) in Opti-MEM medium (Thermo Fisher Scientific, USA) according to manufacturer’s instructions, then cells were cultivated in fresh culture standard medium for 24–72 h.
Real-time cell analysis (xCELLigence, ACEABiosciences, USA) used CIM-Plates held at 37°C under an atmosphere of 5% CO2. Top chamber wells were coated with Matrigel (20 µl per well, diluted 1:40 with cold serum-free DMEM) and allowed to polymerize (4 h at 37°C under 5% CO2) prior to cell seeding. Bottom chamber wells were filled with DMEM/10% FBS (160 µl each), prior to assembly of the chambers, when serum-free DMEM was added to the top wells (30 µl each) and equilibrated (1 h at 37°C under 5% CO2). At 4 h after transfection, B16 cells (4 × 10^4) were seeded into each top chamber well in serum-free DMEM and pre-incubated for 30 min at room temperature before monitoring (xCELLigence set to collect impedance data, reported as cell index at least once every 30 min).
(§4) Figure 2 Biological effect of the miR-21-specific miRNase. (A) Apoptotic profile of B16 melanoma cells after transfection with miR-21-miRNase and control luc-POC. Cytofluorimetric analysis of cells after staining with Annexin V-FITC/PI 48 h after transfection with miRNase or luc-POC (1 µM) in complex with Lipofectamine2000. Q1—population of living cells; Q2—Annexin V-FITC+/PI-, early apoptosis; Q3—Annexin V-FITC+/PI+, late apoptosis; Q4—Annexin V-FITC-/PI+, necrosis. (B) Average percentage of apoptotic (early and late apoptosis) and necrotic B16 cell population. Data represent mean ± s.e. of four independent experiments.(C, D) Invasion activity of B16 cells after incubation with Lipofectamine (LF) alone or treated with either hairpin antisense oligonucleotide (h-ODN), hairpin 2′-OMe oligonucleotide (2′-OMe), commercial miR-21 inhibitor (Inh), miR-21-miRNase, and control conjugate (luc-POC) in the concentration of 1 µM. Migration of cells was recorded in real time using the xCELLigence cell analysis system. Control—B16 cells without treatment. Data represent mean ± s.d. of four independent experiments.

B16 melanoma cells = assay: Annexin V-FITC/PI apoptosis assay; type: cell-based, mouse
Protocol: as §3
At 24, 48, and 72 h after transfection, cells were harvested, washed twice with PBS, resuspended in Binding Buffer to a density of 2–5 × 10^5/ml, and incubated with annexin V-FITC and propidium iodide (PI) (ab14085, Abcam, UK) in the dark at room temperature for 15 min, prior to flow cytometry analysis (Novocyte CEA Biosciences, USA).
as §4

miR-21 = miR-21 level in transfected RLS40 cells by PCR analysis; type: cell-based, mouse
Protocol: as §1, §2

[1] = Nuclease resistance assay in DMEM with 10% fetal bovine serum; type: in vitro ADME; settings: 0.1 µg/µl, DMEM with 10% FBS, 37°C; 12% PAAG/8M urea gel, Stains-All
Protocol: Oligonucleotides or conjugates (0.1 µg/µl) were incubated at 37°C in Dulbecco’s Modified Eagle Medium (DMEM) (Sigma, USA) with 10% fetal bovine serum (FBS; GE Healthcare, USA). Reactions were quenched in urea (8M) and immediately frozen in liquid nitrogen, prior to analysis of thawed samples in 12% PAAG/8M urea gels, using Tris-Borate-EDTA (TBE) as running buffer, Stains-All (MP Biomedicals, USA) and photographic gel documentation (VilberLourmat, France).

Substance	Increase in PTEN protein level (PTEN) [fold]	Inhibition of tumor cell proliferation (lymphosarcoma cells) [%]	Increase in PDCD4 protein level (PDCD4) [fold]	Inhibition of invasion of B16 cells relative to luc-POC (B16 cells; time point 40 h)	Inhibition of invasion of B16 cells relative to control (B16 cells; time point 40 h, four independent experiments)	Necrosis of melanoma B16 cells (Annexin V-FITC-/PI+) (B16 melanoma cells; 1 µM with Lipofectamine, 24, 48, 72 h after transfection, maximum extent, flow cytometry)	Cells with signs of apoptosis (early and late) (B16 melanoma cells; 1 µM with Lipofectamine, 48 h after transfection (maximum), mean of four independent experiments) [%]	Apoptotic cells relative to intact B16 cells (B16 melanoma cells; 1 µM, 48 h after transfection)	Decrease in miR-21 level (miR-21; RLS40 cells, 1 µM, 24 h after transfection, normalized to U6) [fold]	Reduction in miR-21 level (miR-21; single treatment of tumor cells prior to transplantation) [%]	Survival (intact) in serum-containing medium [1]	Migration rate of transfected B16 cells (in words) (B16 cells; compared with Lipofectamine alone)
acetyl-[(LeuArg)2Gly]2-aminohexyl-AGTCTGATAAGCTACAAGTCAGCGAAAGCTGACTTG [miR-21-miRNase, peptide acetyl-[(LeuArg)2Gly]2 conjugated through aminohexyl linker to 5′-end of miR-21-targeted hairpin oligodeoxyribonucleotide]	1.7	50	2.4	about 70%	about 70%	up to 7%	28	six	2	50		
h-ODN: miR-21-targeted hairpin deoxyribooligonucleotide AGTCTGATAAGCTACAAGTCAGCGAAAGCTGACTTG, unconjugated with the peptide (DNA, backbone and methylation of C not given here; hairpin at 3' end, unconjugated)											a few hours	almost the same rate as cells incubated with Lipofectamine
